The source of these data is a melting point compilation (Tetko et al.; mined from patent text by program, amines drawn as free bases though some values may be those of a salt).

Each structure is given as a SMILES string.

For `CCOC(=O)C1(C)C=C(Cl)C2=NCN(C)C2=N1` (centres undefined), the melting point (as a rule, the temperature, or range, at which the solid turns liquid) was in the range of 56 to 58 °C.

The compound `Cc1cccc(C(=O)N(C)C)c1N` registered a melting point of 95 to 96 °C.

In turn, `O=C(O)c1ccc(-c2ccc(C(=O)O)cc2-c2nc3ccccc3[nH]2)c(-c2nc3ccccc3[nH]2)c1` returned a melting point of more than 400 °C. The result for `COc1ccc(C#Cc2ccncc2)c2c1OC1(CCCC1)C2` reads 128 to 131 °C; that for `COCOc1cc(Cl)ccc1-c1cc(-c2cccc(C(=O)NCC3CCCCN3C(=O)OC(C)(C)C)c2)c(C#N)c(NC(=O)c2ccco2)n1` (centres undefined), 133 to 136 °C. The same measure for `OCc1ccc(OCc2ccccc2)c(F)c1`: 56 to 57 °C; for `Cc1ccccc1-c1c(C(=O)N(C)Cc2cc(C(F)(F)F)cc(C(F)(F)F)c2)c(=O)oc2ccccc12`: 130 to 131 °C; for `Cc1ccnc(-c2nc3ccccc3[nH]2)c1`: 228 to 229 °C. The same measure for `CN(c1cccc2cc(C3=NCC(CO)S3)[nH]c12)S(=O)(=O)c1cccs1` (centres undefined): 207 to 208 °C. In the case of `CCC1(CCI)C(=O)N2CC=CC(C(=O)OC)N2C1=O` (centres undefined), the melting point is 95 to 97 °C. The result for `CCc1nn(-c2ccc(Cl)nn2)c(CC)c1[N+](=O)[O-]` reads 83 to 85 °C.

As to `CC(C)(C)C(=O)C(Cl)NC(=O)c1ccc(Cl)cc1` (centres undefined), the melting point lay within 132 to 135 °C. The result for `CCCCCCOc1ccccc1C(=NCCC(C)(C)C)NC#N` reads 89 to 90 °C; that for `Cc1ccc(-c2ccc(C(=O)Nc3ccc4nc(CN5CCOCC5)ccc4c3)cn2)cc1`, 214 to 216 °C.

`CCOC(=O)C1=C(C)NN=C(C(=O)OC)C1c1cccc([N+](=O)[O-])c1` (centres undefined) yielded a melting point of 176 °C. The result for `O=[N+]([O-])c1cccc2c(NCC34CCCN3CCC4)cccc12` reads 95 to 97 °C. The same measure for `COc1cccc(Cn2nc(C(=O)O)c3c2-c2ccc(OCc4cncnc4)cc2CC3)c1`: 220 to 221 °C; for `O=C(c1ccc(F)cc1)c1cccc(C#Cc2cccc(C(=O)c3ccc(F)cc3)c2)c1`: 205 to 206 °C; for `CN1C2CCCC1CC(NC(=O)c1cccc3oc(-c4ccc(F)cc4)nc13)C2` (centres undefined): 197 to 199 °C. As to `COc1cc(C(=O)NS(=O)(=O)c2ccccc2Cl)ccc1Cc1c(Cl)n(C)c2ccc(CC(C)NC(=O)N(C)C)cc12` (centres undefined), the melting point lay in the range of 126 to 136 °C. In turn, `CN(C)c1cc(CC(C#N)CNc2ccccc2)cc(N(C)C)c1N(C)C` (centres undefined) came in with a melting point of 179 to 181 °C. The same measure for `O=C(O)c1cccc(-c2cccc3sc(Cc4cccc(C(F)(F)F)c4)nc23)c1`: 152 to 153 °C.

For `Nc1nc(-c2ccc(F)cc2)cc(-c2ccc(F)cc2)n1`, the melting point lay in the range of 207 to 210 °C.

`CC(=O)c1c(C)nc(N(Cc2ccccc2)Cc2ccccc2)c(N)c1NCCc1ccccc1` displayed a melting point of 152 to 153 °C.

Take `COc1cccc(C2C(C(=O)c3ccc(C)cc3)=C(O)C(=O)N2c2ccc(C)nn2)c1` (centres undefined): the melting point was 265 °C. The same measure for `CC(C)(CO)NS(=O)(=O)c1ccc(Cl)c(NC(=O)c2cnn3c(C(F)(F)F)cc(-c4ccc(C(F)(F)F)cc4)nc23)c1`: 246 °C; for `O=C(O)c1sc(-c2ccc(Cl)cc2)nc1C(F)(F)F`: 235 to 250 °C. As to `CN(C)S(=O)(=O)c1ccc(C#N)c(C(F)(F)F)c1`, the melting point is 133 to 136 °C. `O=C(N(Cc1cccnc1)c1ccc(Cl)cc1)C(F)(F)F` displayed a melting point of 80 to 81 °C. The same measure for `COc1cc(C(C)(C)C)c(OC(C)=O)c(C(C)(C)C)c1CC(C)=O`: 133 °C; for `CC(=O)SCC(C(=O)NC(Cc1occ2ccccc12)C(=O)O)C(F)(F)F` (centres undefined): 147 to 149 °C. The compound `CC(C)(CNc1ccnc2cc(Cl)ccc12)NCc1cccc(C(F)(F)F)c1` returned a melting point of 156 to 157 °C. With `COC(=O)NCC1Cc2c(Cl)cc3c(c2O1)CCC3` (centres undefined), the melting point lay in the range of 139 to 141 °C.

Regarding `COc1cc(C)c(Br)cc1OCc1ccccc1`, the melting point lay in the range of 110 to 111 °C. Compound `N#CCCNC(=O)Sc1ccccc1` had a melting point of 86 to 90 °C. The result for `CCOC(=O)c1cc2c(C(F)(F)F)coc2nc1C(=O)OCC` reads 50 to 55 °C. In the case of `CC(C)C(=O)Oc1ccc2c(c1Cl)Sc1ccccc1N2C`, the melting point amounted to 147 °C. Take `CSc1ccc(CN(C)CCCCc2ccc(NC(=O)c3cccc4c(=O)c5ccccc5[nH]c34)cc2)cc1`: the melting point came to 135 °C. The same measure for `CCCCOc1c(CNC(=O)OCC2c3ccccc3-c3ccccc32)n(CC(C)C)c(=O)c2ccc(-c3nc(C(=O)OCC)cs3)cc12`: 203 to 204 °C. The same measure for `COc1ccc2cc(Br)ccc2n1`: 93 to 96 °C; for `S=C(NCCCCN(Cc1ccc(Br)cc1)c1ccccn1)NCCCn1ccnc1`: 122 to 124 °C. The result for `O=C(O)c1cnc2cc(O)ccc2c1` reads more than 260 °C; that for `COc1ccc(OCC(=O)O)c(OC)c1OC`, 102 to 104 °C. Turning to `CC(C)C1(C)N=C(c2ncc(C3OCCO3)cc2C(=O)O)NC1=O` (centres undefined), the melting point was 156 °C. The same measure for `CC(=O)n1ncc2c(O)cc(C)cc21`: 191 to 192 °C; for `C=C(C)COC1CC2C3CCC4=CC(=O)CCC4(C)C3(F)C(O)CC2(C)C1(O)C(=O)CO` (centres undefined): 213 to 215 °C; for `O=[N+]([O-])c1ccc(NCCSCc2c[nH]cn2)nc1`: 145 to 147 °C. On to `CCOC(=O)C(Br)=CC1C(C(=O)OC(C#N)c2cccc(Oc3ccccc3)c2)C1(C)C` (centres undefined), for which the melting point came to 69 °C. The compound `COC(=O)c1ccc(OCC(=O)c2cc3cc(Cl)ccc3o2)cc1` gave a melting point of 145 to 147 °C. The same measure for `CC(C)Cn1c(CNC(=O)OC(C)(C)C)c(-c2ccccc2)c2cc(OC(C)(C)C(N)=O)ccc2c1=O`: 219 to 220 °C; for `CC(=O)Nc1cc(CN(C)C)c2ncc(C#N)c(Nc3cccc(Br)c3)c2c1`: 162 to 167 °C.

`CCN(CC)c1ccc(C(O)C#Cc2ccc(C(=O)O)c(O)c2)cc1C(C)(C)C` (centres undefined): the melting point came out at 245 °C. The same measure for `CN(C)c1c(C#N)cnc2c(NC(=O)c3c(Cl)cccc3Cl)cccc12`: 227 to 228 °C; for `Cc1cc(C)c(C(=NO)C(F)(F)F)c(C)c1`: 119 to 125 °C.
